# Data reported in patent US6685617B1, “Inhibitors of α4β1 mediated cell adhesion” (Pharmacia & Upjohn Company, priority 1998, dated 2004).
# Biological target: T1, α4β1 integrin (Jurkat T-cell adhesion to IL-1 stimulated endothelial cell monolayers) (Homo sapiens, UniProt P05556+P13612)
# T1 construct: a T-cell line, Jurkat, known to express the α4β1 integrin; host or cells: Jurkat T-cell line
# Assay: Jurkat-endothelial cell adhesion assay (Jurkat EC)
# Assay type: cell-based
# Settings: Jurkat cells on IL-1 stimulated human umbilical vein endothelial cells; read-out: JK/EC (Jurkat EC Assay IC50 value range)
# Protocol: Jurkat-endothelial Cell Adhesion Assay:
# The following assay established the activity of the present compounds in inhibiting β1-mediated cell adhesion in a representative in vitro system. This assay measures the adhesive interactions of a T-cell line, Jurkat, known to express the α4β1 integrin, to endothelial monolayers in the presence of test compounds. The test compounds were added in increasing concentrations to T-cells and then the T-cell compound mixture was added to IL-1 stimulated endothelial cell monolayers. The plates were incubated, washed and the percentage of attached cells was quantitated.
# Human umbilical vein endothelial cells were purchased from Clonetics (San Diego, Calif.) at passage number 2. The cells were grown on 0.5% porcine skin gelatin pre-coated flasks (Sigma, St. Louis Mo.) in EGM-UV media (Clonetics, San Diego, Calif.) supplemented with 10% fetal bovine serum. Cells are refed every 2-3 days reaching confluence by day 4 to 6. […] The endothelial cells are not used following passage 6.
# The T-cell line Jurkat was obtained from American Type Tissue Culture Collection (Rockville, Md.) and the cells were cultured in RPMI containing 10% fetal calf serum. The cells were washed twice in Hank's Balanced Salt Solution (HBSS) and resuspended in Dulbecco's Minimal Eagle's Media (DMEM) containing 2.5 mg/ml Human Serum Albumin (HSA). Jurkat cells (1×10^6 cells/ml) were stained with 10 ng/ml BCECF-AM (Molecular Probes, Eugene, Oreg.)) in HBSS without phenol red. The cells were loaded with BCECF for 60 minutes in the dark at 370C, washed 2 times, and resuspended in DMEM-HSA solution.
# Confluent endothelial monolayers, grown in 96-well tissue culture plates, were stimulated for 4 hr. at 37° C. with 0.1 ng/ml (˜50 U/ml) recombinant IL-1 (Amgen, Thousand Oaks, Calif.). Following this incubation, the monolayers were washed twice with HBSS and 0.1 ml of DMEM−HSA solution was added. Jurkat cells (5×10^5 cells) were combined with the appropriate concentration of the test compound and 0.1 ml of the Jurkat cell-compound mixture was added to the endothelial cell monolayers. Generally, 100, 20, 5 and 1.25 μM compound concentrations were tested. […] The plates were placed on ice for 5 minutes to allow for Jurkat cell settling and the plates were incubated at 37° C. for 20 minutes. Following this incubation, the monolayers were washed twice with PBS containing 1 mM calcium chloride and 1 mM magnesium chloride and the plates were read using a Millipore Cytofluor 2300 (Marlboro, Mass.). Fluorescence in each well was measured as Arbitrary Fluorescence Units and percent adhesion in the absence of compound was adjusted to 100% and the % adhesion in the presence of compound was calculated. Monolayers were also fixed in 3% paraformaldehyde and evaluated microscopically to verify the adhesion. This procedure is a modification of a previously published method (Cardarelli et al., J. Biol. Chem. 269:18668-18673 (1994)).
# T1 sequence (P13612 34-1032): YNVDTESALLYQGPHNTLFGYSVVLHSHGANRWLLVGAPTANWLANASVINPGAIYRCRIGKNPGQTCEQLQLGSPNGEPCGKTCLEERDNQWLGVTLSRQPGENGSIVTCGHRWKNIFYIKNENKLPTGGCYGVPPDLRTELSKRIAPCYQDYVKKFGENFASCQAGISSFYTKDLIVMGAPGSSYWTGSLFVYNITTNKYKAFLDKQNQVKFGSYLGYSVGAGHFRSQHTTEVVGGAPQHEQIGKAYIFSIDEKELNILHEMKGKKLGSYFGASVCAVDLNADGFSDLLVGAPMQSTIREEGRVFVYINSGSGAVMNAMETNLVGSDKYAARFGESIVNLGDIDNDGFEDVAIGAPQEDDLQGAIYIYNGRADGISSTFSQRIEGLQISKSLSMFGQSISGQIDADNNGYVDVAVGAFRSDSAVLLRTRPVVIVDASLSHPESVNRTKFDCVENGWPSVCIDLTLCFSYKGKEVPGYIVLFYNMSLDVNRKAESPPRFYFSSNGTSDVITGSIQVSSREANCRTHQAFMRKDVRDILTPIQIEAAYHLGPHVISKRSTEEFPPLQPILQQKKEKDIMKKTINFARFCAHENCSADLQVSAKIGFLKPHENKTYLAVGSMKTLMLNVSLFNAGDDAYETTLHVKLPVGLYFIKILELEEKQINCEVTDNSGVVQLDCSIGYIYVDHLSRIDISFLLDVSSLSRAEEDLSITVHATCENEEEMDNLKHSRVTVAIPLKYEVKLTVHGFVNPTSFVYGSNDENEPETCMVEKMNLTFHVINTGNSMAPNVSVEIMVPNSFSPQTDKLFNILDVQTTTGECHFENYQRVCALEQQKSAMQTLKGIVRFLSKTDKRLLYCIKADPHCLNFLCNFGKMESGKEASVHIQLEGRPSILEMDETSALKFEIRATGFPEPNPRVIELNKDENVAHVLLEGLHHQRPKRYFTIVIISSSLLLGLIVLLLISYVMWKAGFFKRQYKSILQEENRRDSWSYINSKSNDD
# T1 sequence (P05556 21-798): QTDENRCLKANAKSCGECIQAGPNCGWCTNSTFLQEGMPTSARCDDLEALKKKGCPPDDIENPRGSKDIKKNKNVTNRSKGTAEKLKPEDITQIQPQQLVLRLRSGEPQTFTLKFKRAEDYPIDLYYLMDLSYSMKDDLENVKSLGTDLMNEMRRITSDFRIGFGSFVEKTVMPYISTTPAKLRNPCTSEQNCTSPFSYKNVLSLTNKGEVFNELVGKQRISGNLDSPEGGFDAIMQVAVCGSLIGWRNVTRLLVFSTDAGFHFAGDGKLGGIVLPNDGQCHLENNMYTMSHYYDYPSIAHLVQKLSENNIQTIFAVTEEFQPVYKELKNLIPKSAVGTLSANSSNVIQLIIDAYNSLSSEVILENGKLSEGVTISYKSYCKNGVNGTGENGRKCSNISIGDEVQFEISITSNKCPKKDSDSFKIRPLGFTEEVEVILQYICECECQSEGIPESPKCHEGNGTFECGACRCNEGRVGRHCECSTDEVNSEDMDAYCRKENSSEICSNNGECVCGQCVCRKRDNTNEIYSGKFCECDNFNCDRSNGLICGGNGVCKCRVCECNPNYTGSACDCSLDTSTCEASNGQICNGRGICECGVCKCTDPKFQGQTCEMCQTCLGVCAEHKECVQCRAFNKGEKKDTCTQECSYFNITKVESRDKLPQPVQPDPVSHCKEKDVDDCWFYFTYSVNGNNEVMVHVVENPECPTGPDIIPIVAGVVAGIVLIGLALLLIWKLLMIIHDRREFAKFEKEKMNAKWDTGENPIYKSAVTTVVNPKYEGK
row,Compound,IC50 [nM]
1,"CCOC(=O)N1CSC[C@@H]1C(=O)N[C@@H](Cc1ccc(OCc2c(Cl)cccc2Cl)cc1)C(N)=O (relative stereo) [Example 90, [S-(R*,R*)]-4-[[[1-[[4-[(2,6-Dichlorophenyl)methoxy]phenyl]methyl]-2-amino-2-oxoethyl]amino]carbonyl]-3-thiazolidinecarboxylic Acid 3-Ethyl Ester]",≥ 1000
2,"O=C(C[C@H]1CC[C@@H](C(=O)O)N1Cc1ccccc1)N[C@@H](Cc1ccc(OCc2c(Cl)cccc2Cl)cc1)C(=O)O [Example 94, (5R)-5-[2-[[(1S)-1-Carboxy-2-[4-[(2,6-dichlorophenyl)methoxy]phenyl]ethyl]amino]-2-oxoethyl]-1-(phenylmethyl)-L-proline]",≥ 1000
3,"O=C(C[C@@H]1CC[C@H](C(=O)O)N1Cc1ccccc1)N[C@@H](Cc1ccc(OCc2c(Cl)cccc2Cl)cc1)C(=O)O [Example 95, (5S)-5-[2-[[(1S)-1-Carboxy-2-[4-[(2,6-dichlorophenyl)methoxy]phenyl]ethyl]amino]-2-oxoethyl]-1-(phenylmethyl)-D-proline]",≥ 1000
4,"COC(=O)CCC1(CCC(=O)N[C@@H](Cc2ccc(NC(=O)c3c(Cl)cccc3Cl)cc2)C(=O)OC)CCC(=O)N1C (stereo partly drawn) [Example 110, 2-[3-[[(1S)-1-[[4-[(2,6-Dichlorobenzoyl)amino]phenyl]methyl]-2-methoxy-2-oxoethyl]amino]-3-oxopropyl]-1-methyl-5-oxo-2-pyrrolidinepropanoic Acid Methyl Ester]",≥ 1000
5,"COC(=O)CCC1(CCC(=O)N[C@@H](Cc2ccc(OCc3c(Cl)cccc3Cl)cc2)C(=O)OC)CCC(=O)N1 (stereo partly drawn) [Example 112, 2-[3-[[(1S)-1-[[4-[(2,6-Dichlorophenyl)methoxy]phenyl]methyl]-2-methoxy-2-oxoethyl]amino]-3-oxopropyl]-5-oxo-2-pyrrolidinepropanoic Acid Methyl Ester]",≥ 1000
6,"COC(=O)[C@H](Cc1ccc(NC(=O)c2c(Cl)cccc2Cl)cc1)NC(=O)C1CCCCN1C(=O)CCC(=O)O (stereo partly drawn) [Example 163, 2-[[[(1S)-1-[[4-[(2,6-Dichlorobenzoyl)amino]phenyl]methyl]-2-methoxy-2-oxoethyl]amino]carbonyl]-γ-oxo-1-piperidinebutanoic Acid]",≥ 1000
7,COC(=O)[C@H](Cc1ccc(NC(=O)c2c(Cl)cccc2Cl)cc1)NC(=O)C1CCCCN1C(=O)CC1(CC(=O)O)CCCC1 (stereo partly drawn) [Example 164],≥ 1000

# Further lines, results first:
row,IC50 [nM],Compound
1,≤ 250,COC(=O)[C@H](Cc1ccc(NC(=O)c2c(Cl)cccc2Cl)cc1)NC(=O)C1CCCCN1C(=O)CC(C)(C)CC(=O)O (stereo partly drawn) [Example 165]
2,≥ 1000,COC(=O)[C@H](Cc1ccc(NC(=O)c2c(Cl)cccc2Cl)cc1)NC(=O)C1CCCCN1C(=O)/C=C\C(=O)O (stereo partly drawn) [Example 166]
3,≥ 1000,O=C(O)CC1(CC(=O)N2CCCCC2C(=O)N[C@@H](Cc2ccc(NC(=O)c3c(Cl)cccc3Cl)cc2)C(=O)O)CCCC1 (stereo partly drawn) [Example 168]
4,≥ 1000,CC(C)(CC(=O)O)CC(=O)N1CCCCC1C(=O)N[C@@H](Cc1ccc(NC(=O)c2c(Cl)cccc2Cl)cc1)C(=O)O (stereo partly drawn) [Example 169]
5,≥ 1000,O=C(O)/C=C\C(=O)N1CCCCC1C(=O)N[C@@H](Cc1ccc(NC(=O)c2c(Cl)cccc2Cl)cc1)C(=O)O (stereo partly drawn) [Example 170]
6,250 to 1000,"O=C(O)CCC(=O)N1CCCC(C(=O)N[C@@H](Cc2ccc(NC(=O)c3c(Cl)cccc3Cl)cc2)C(=O)O)C1 (stereo partly drawn) [Example 174, 3-[[[(1S)-1-Carboxy-2-[4-[(2,6-dichlorobenzoyl)amino]phenyl]ethyl]amino]carbonyl]-γ-oxo-1-piperidinebutanoic Acid]"
7,≥ 1000,"O=C(O)c1ccc(NC(=O)N2CCC(C(=O)N[C@@H](Cc3ccc(NC(=O)c4c(Cl)cccc4Cl)cc3)C(=O)O)CC2)cc1 [Example 175, N-[[1-[[(4-Carboxyphenyl)amino]carbonyl]-4-piperidinyl]carbonyl]-4-[(2,6-dichlorobenzoyl)amino]-L-phenylalanine]"
8,250 to 1000,CC(=O)CCC(=O)N1CCCC[C@H]1C(=O)N[C@@H](Cc1ccc(NC(=O)c2c(Cl)cccc2Cl)cc1)C(=O)O [Example 179]
